Measured values from ChEMBL document CHEMBL4265900, “Discovery of the bifunctional modulator of angiotensin II type 1 receptor (AT1R) and PPARγ derived from the AT1R antagonist, Fimasartan” (Bioorg Med Chem Lett, 2018).
Active and inactive are the calls of the source. The rule behind the calls is not given here.

How the values were obtained:
[1] = biological target: T1, Peroxisome proliferator-activated receptor gamma (Homo sapiens) (UniProt P37231); test: Agonist activity at PPARgamma (unknown origin) at 1 uM relative to telmisartan
T1 sequence (whole entry): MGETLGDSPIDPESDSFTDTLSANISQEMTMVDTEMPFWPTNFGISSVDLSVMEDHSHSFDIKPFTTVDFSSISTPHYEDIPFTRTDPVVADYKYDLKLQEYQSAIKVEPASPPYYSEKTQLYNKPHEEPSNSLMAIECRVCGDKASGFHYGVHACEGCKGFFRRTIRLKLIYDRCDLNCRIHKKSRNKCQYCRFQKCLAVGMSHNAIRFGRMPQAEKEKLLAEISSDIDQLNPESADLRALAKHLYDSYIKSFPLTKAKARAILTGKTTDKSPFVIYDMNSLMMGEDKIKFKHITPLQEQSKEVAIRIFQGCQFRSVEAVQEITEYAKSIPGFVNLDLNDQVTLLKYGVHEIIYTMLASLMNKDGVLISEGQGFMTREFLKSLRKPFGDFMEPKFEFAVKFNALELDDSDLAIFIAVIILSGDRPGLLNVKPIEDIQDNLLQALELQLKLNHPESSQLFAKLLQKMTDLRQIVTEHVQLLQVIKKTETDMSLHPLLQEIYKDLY

[2] = biological target: T2, Type-1 angiotensin II receptor (Homo sapiens, UniProt P30556); test: Antagonist activity at type-1 angiotensin 2 receptor (unknown origin) by calcium mobilizing assay; format: functional
T2 sequence (P30556 whole entry): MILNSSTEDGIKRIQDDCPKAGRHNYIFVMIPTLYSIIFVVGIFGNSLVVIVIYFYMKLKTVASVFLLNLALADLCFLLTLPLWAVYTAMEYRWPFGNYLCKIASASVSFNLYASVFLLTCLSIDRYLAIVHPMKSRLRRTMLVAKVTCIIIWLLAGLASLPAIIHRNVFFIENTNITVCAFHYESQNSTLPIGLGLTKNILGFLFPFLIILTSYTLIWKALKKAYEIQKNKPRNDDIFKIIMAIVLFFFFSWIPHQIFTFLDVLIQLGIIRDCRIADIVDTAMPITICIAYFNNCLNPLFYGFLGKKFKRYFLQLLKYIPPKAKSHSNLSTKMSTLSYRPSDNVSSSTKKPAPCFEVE

[3] = biological target: T3, Type-1 angiotensin II receptor (Homo sapiens) (UniProt P30556); test: Antagonist activity at type-1 angiotensin 2 receptor (unknown origin) at 20 nM by calcium mobilizing assay relative to fimasartan; format: functional
T3 sequence (whole entry): T2 sequence (P30556 whole entry)

[4] = Half life in rat at 10 mg/kg, po; format: ADME, organism-based; conditions: in vivo
[5] = Tmax in rat at 10 mg/kg, po; format: ADME, organism-based; conditions: in vivo
[6] = Cmax in mouse at 20 mg/kg, po; format: ADME, organism-based; design: dose 20 mg/kg, route oral; conditions: in vivo
Rattus norvegicus [7] = test: Antihypertensive activity in angiotensin 2 induced hypertension rat model assessed as time required for 50% reduction in blood pressure at 3 mg/kg, po; format: functional
[8] = AUClast in mouse at 20 mg/kg, po; format: ADME, organism-based; design: dose 20 mg/kg, route oral, time 0 - last; conditions: in vivo
[9] = AUClast in rat at 10 mg/kg, po; format: ADME, organism-based; design: dose 10 mg/kg, route oral, time 0 - last; conditions: in vivo
[10] = Cmax in rat at 10 mg/kg, po; format: ADME, organism-based; design: dose 10 mg/kg, route oral; conditions: in vivo
Rattus norvegicus [11] = test: Antihypertensive activity in angiotensin 2 induced hypertension rat model at 3 mg/kg, po measured until 8 hrs post dose; format: functional, organism-based
Rattus norvegicus [12] = test: Antihypertensive activity in angiotensin 2 induced hypertension rat model at 30 mg/kg, po measured until 8 hrs post dose; format: functional, organism-based
Mus musculus [13] = test: Toxicity in db/db mouse model assessed as suppression of weight gain at 60 mg/kg, po qd measured after 11 days; format: organism-based; conditions: in vivo, 264 h
CYP2C19 = CYP2C19 (Homo sapiens, UniProt P33261); test: Inhibition of CYP2C19 (unknown origin) assessed as remaining activity at 10 uM; format: ADME; conditions: read-out: Activity
[14] = Ratio of AUClast in rat at 60 mg/kg, po to AUClast in mouse at 60 mg/kg, po; format: ADME, organism-based; conditions: in vivo
[15] = biological target: T2, Type-1 angiotensin II receptor; test: Antagonist activity at type-1 angiotensin 2 receptor (unknown origin) by beta-arrestin recruitment assay; format: functional
[16] = Half life in mouse at 60 mg/kg, po; format: ADME, organism-based; conditions: in vivo
[17] = AUClast in rat at 60 mg/kg, po; format: ADME, organism-based; design: dose 60 mg/kg, time 0 - last, route oral; conditions: in vivo
[18] = Stability in human liver microsomes assessed as compound remaining after 30 mins; format: ADME, microsome; conditions: read-out: Stability
Rattus norvegicus [19] = test: Antihypertensive activity in angiotensin 2 induced hypertension rat model at 30 mg/kg, po measured after 24 hrs relative to fimasartan; format: functional
[20] = Half life in rat at 60 mg/kg, po; format: ADME, organism-based; conditions: in vivo
[21] = Tmax in rat at 60 mg/kg, po; format: ADME, organism-based; conditions: in vivo
CYP3A4 = CYP3A4 (Homo sapiens, UniProt P08684); test: Inhibition of CYP3A4 (unknown origin) assessed as remaining activity at 10 uM; format: ADME; conditions: read-out: Activity
[22] = Stability in rat liver microsomes assessed as compound remaining after 30 mins; format: ADME, microsome; conditions: read-out: Stability
[23] = Stability in mouse liver microsomes assessed as compound remaining after 30 mins; format: ADME, microsome; conditions: read-out: Stability
[24] = biological target: T4, Peroxisome proliferator-activated receptor gamma (Homo sapiens, UniProt P37231); test: Agonist activity at PPARgamma (unknown origin)
T4 sequence (P37231 whole entry): T1 sequence (whole entry)

CYP2C9 = CYP2C9 (Homo sapiens, UniProt P11712); test: Inhibition of CYP2C9 (unknown origin) assessed as remaining activity at 10 uM; format: ADME; conditions: read-out: Activity
CYP2D6 = CYP2D6 (Homo sapiens, UniProt P10635); test: Inhibition of CYP2D6 (unknown origin) assessed as remaining activity at 10 uM; format: ADME; conditions: read-out: Activity
[25] = Cmax in rat at 60 mg/kg, po; format: ADME, organism-based; design: dose 60 mg/kg, route oral; conditions: in vivo
[26] = AUClast in mouse at 60 mg/kg, po; format: ADME, organism-based; design: dose 60 mg/kg, time 0 - last, route oral; conditions: in vivo
[27] = biological target: Voltage-gated inwardly rectifying potassium channel KCNH2 (Homo sapiens, UniProt Q12809); test: Inhibition of human ERG
Rattus norvegicus [28] = test: Antihypertensive activity in angiotensin 2 induced hypertension rat model assessed as time required for 50% reduction in blood pressure at 30 mg/kg, po; format: functional
[29] = Cmax in mouse at 60 mg/kg, po; format: ADME, organism-based; design: dose 60 mg/kg, route oral; conditions: in vivo
CYP1A2 = biological target: T5, CYP1A2 (Homo sapiens, UniProt P05177); test: Inhibition of CYP1A2 (unknown origin) assessed as remaining activity at 10 uM; format: ADME; conditions: read-out: Activity
T5 sequence (P05177 whole entry): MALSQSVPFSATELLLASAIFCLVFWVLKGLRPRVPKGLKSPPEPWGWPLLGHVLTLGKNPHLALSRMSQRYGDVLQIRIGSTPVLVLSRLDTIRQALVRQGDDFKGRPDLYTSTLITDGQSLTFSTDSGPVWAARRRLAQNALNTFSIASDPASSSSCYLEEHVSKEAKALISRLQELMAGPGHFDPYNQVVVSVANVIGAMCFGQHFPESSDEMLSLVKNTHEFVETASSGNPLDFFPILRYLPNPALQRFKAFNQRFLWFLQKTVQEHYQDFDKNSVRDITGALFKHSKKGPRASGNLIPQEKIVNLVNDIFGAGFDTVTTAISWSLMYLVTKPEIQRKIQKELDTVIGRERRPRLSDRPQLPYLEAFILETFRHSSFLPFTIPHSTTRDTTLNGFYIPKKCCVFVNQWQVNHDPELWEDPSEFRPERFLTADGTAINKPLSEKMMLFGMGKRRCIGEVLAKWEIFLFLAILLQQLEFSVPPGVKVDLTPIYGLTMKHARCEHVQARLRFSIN

[30] = Stability in dog liver microsomes assessed as compound remaining after 30 mins; format: ADME, Canis lupus familiaris, microsome; conditions: read-out: Stability
[31] = Tmax in mouse at 60 mg/kg, po; format: ADME, organism-based; conditions: in vivo
Mus musculus [32] = test: Antidiabetic activity in db/db mouse model assessed as suppression of blood glucose increase at 60 mg/kg qd, po administered for 13 days; format: functional, organism-based
[33] = biological target: T1, Peroxisome proliferator-activated receptor gamma (Homo sapiens); test: Agonist activity at PPARgamma (unknown origin) at 1 uM relative to pioglitazone

Sequence of Voltage-gated inwardly rectifying potassium channel KCNH2 (Q12809 whole entry): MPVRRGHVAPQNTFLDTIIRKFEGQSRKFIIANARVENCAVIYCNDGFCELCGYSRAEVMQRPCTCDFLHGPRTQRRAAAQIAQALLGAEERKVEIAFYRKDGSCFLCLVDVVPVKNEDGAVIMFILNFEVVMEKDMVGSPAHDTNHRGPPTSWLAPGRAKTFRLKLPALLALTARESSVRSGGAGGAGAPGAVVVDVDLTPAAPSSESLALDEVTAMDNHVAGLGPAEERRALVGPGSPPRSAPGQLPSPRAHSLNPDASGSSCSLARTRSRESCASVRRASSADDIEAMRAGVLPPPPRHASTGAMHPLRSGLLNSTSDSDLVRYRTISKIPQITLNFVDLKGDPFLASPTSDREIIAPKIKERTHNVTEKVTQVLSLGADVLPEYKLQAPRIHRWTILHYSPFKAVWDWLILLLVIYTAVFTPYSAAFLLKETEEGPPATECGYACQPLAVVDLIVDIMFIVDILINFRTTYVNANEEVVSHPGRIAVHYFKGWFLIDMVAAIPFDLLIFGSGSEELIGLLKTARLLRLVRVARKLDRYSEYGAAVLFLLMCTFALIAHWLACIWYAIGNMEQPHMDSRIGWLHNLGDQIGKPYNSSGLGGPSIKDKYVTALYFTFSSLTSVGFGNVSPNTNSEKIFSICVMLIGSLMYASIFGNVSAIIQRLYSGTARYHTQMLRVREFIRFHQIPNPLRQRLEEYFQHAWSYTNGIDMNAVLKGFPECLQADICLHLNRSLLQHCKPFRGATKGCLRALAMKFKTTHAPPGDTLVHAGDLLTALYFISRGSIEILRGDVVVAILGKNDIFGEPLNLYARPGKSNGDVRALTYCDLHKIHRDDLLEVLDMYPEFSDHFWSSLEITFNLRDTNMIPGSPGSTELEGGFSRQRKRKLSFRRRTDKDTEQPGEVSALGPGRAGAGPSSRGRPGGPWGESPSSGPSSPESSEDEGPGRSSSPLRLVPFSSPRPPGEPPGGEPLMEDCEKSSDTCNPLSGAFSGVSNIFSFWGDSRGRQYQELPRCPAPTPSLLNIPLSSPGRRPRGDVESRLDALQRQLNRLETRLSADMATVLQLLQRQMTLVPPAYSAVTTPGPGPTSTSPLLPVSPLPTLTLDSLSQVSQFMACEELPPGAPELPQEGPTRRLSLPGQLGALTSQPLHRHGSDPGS
Sequence of CYP2C19 (P33261 whole entry): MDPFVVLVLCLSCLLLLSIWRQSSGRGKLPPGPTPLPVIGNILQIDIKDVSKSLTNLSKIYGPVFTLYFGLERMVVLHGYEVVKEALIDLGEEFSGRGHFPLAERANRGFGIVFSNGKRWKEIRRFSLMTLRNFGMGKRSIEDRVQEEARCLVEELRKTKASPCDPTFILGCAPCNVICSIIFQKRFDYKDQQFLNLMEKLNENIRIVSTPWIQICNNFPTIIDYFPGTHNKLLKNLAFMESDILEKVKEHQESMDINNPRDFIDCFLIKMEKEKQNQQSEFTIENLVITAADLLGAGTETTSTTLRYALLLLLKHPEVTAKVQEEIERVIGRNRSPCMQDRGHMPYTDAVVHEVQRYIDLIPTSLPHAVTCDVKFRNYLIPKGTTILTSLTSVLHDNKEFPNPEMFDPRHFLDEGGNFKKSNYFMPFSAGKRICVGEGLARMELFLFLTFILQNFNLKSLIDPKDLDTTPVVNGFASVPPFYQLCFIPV
Sequence of CYP2D6 (P10635 whole entry): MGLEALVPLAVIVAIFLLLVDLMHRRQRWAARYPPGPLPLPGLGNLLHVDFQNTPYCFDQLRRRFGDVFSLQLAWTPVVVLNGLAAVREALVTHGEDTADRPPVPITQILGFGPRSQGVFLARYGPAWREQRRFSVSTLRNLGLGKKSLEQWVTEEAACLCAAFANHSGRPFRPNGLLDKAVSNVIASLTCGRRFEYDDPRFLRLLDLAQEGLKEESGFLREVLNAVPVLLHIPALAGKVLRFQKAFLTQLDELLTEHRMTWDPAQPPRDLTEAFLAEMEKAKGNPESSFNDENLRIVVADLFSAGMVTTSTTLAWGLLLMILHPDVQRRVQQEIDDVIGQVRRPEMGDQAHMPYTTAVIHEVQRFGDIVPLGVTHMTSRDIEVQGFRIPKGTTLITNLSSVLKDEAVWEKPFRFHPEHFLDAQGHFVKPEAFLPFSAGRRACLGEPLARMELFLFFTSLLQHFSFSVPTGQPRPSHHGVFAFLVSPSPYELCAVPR
Sequence of CYP3A4 (P08684 whole entry): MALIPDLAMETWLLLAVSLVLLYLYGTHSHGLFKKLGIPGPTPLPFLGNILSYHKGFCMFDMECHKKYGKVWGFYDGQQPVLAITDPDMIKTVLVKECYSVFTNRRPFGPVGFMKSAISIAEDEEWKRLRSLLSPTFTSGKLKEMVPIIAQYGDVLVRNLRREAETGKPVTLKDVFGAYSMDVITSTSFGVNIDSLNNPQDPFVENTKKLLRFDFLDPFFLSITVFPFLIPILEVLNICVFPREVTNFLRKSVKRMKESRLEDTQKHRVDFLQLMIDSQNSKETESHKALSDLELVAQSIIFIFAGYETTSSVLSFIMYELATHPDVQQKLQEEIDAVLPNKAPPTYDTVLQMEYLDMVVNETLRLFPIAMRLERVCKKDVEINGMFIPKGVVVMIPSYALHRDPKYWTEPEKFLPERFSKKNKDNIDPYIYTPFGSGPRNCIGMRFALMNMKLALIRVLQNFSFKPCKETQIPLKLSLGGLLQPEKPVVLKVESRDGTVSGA
Sequence of CYP2C9 (P11712 whole entry): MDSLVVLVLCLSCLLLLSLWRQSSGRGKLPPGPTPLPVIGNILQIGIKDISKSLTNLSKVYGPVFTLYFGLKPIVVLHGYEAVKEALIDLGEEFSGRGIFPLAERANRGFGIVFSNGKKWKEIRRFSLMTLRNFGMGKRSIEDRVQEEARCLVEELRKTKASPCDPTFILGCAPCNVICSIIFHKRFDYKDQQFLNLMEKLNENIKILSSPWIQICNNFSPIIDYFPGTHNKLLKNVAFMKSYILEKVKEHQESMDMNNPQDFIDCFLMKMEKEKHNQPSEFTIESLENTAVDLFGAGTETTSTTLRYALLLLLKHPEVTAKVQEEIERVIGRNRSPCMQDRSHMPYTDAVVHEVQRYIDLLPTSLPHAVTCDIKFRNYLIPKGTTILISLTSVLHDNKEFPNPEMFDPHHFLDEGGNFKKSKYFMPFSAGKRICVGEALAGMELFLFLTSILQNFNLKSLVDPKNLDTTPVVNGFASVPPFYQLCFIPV

Compound: CCCCc1nc(C)c(CC(=S)N2Cc3ccccc3C2)c(=O)n1Cc1ccc(-c2ccccc2-c2noc(=O)[nH]2)cc1
- Activity [1]: 100%
- IC50 [2]: 32 nM

Compound: CCCCc1nc(C)c(CC(=S)N(C)C)c(=O)n1Cc1ccc(-c2ccccc2C(=O)O)cc1
- Activity [1]: 140%
- inhibition [3]: 80%

Compound: CCCCc1nc(C)c(CC(=S)N(C)CC(C)C)c(=O)n1Cc1ccc(-c2ccccc2-c2noc(=O)[nH]2)cc1
- Activity [1]: 122%
- IC50 [2]: 2.1 nM

Compound: CCCCc1nc(C)c(CC(=S)N(C)C)c(=O)n1Cc1ccc(-c2ccccc2S(N)(=O)=O)cc1
- inhibition [3]: 11%

Compound: CCCCc1nc(C)c(CC(=S)N(C)C)c(=O)n1Cc1ccc(-c2ccccc2-c2nnn[nH]2)cc1 [FIMASARTAN]
- half-life [4]: 3.6 h
- Tmax [5]: 7.8 min
- Activity [1]: 0%
- IC50 [2]: 4.5 nM
- Cmax [6]: 145 ng/mL
- Time (Rattus norvegicus [7]): 22 h
- AUC(0-t) [8]: 254 ng·h/mL
- AUC(0-t) [9]: 1930 ng·h/mL
- Cmax [10]: 518 ng/mL
- Activity (Rattus norvegicus [11]): Active

Compound: Cc1nc(C2CC2)n(Cc2ccc(-c3ccccc3-c3noc(=O)[nH]3)cc2)c(=O)c1CC(=S)N(C)C
- inhibition [3]: 9.5%

Compound: CCCCc1nc(C(C)C)c(CC(=S)N2CCCC2)c(=O)n1Cc1ccc(-c2ccccc2-c2noc(=O)[nH]2)cc1
- Activity (Rattus norvegicus [12]): Active
- Activity (Mus musculus [13]): Non-Toxic
- activity at 10 µM (CYP2C19): 84%
- Ratio AUC [14]: 4
- Activity [1]: 156%
- IC50 [15]: 10.5 nM
- half-life [16]: 3.67 h
- AUC(0-t) [17]: 13400 ng·h/mL
- remaining at 0.5 h [18]: 13%
- IC50 [2]: 2.2 nM
- Activity (Rattus norvegicus [19]): 50%
- half-life [20]: 4.73 h
- Tmax [21]: 1.17 h
- activity at 10 µM (CYP3A4): 62%
- remaining at 0.5 h [22]: 24%
- remaining at 0.5 h [23]: 11%
- EC50 [24]: 3100 nM
- activity at 10 µM (CYP2C9): 36%
- activity at 10 µM (CYP2D6): 99%
- Cmax [25]: 2570 ng/mL
- AUC(0-t) [26]: 2570 ng·h/mL
- IC50 [27]: 7000 nM
- Time (Rattus norvegicus [28]): 16 h
- Cmax [29]: 1860 ng/mL
- activity at 10 µM (CYP1A2): 97%
- remaining at 0.5 h [30]: 62%
- Tmax [31]: 0.5 h
- Activity (Mus musculus [32]): Active
- Activity [33]: 66%

Compound: CCCCc1nc(C)c(CC(=S)N2[C@H](C)CC[C@H]2C)c(=O)n1Cc1ccc(-c2ccccc2-c2noc(=O)[nH]2)cc1
- Activity [1]: 100%
- IC50 [2]: 1.8 nM

Compound: CCCc1nc(C)c(CC(=S)N(C)C)c(=O)n1Cc1ccc(-c2ccccc2-c2noc(=O)[nH]2)cc1
- Activity [1]: 100%
- IC50 [2]: 4.7 nM

Compound: CCCCc1nc(C)c(CC(=S)N2CC[C@@H]3CCCC[C@H]32)c(=O)n1Cc1ccc(-c2ccccc2-c2noc(=O)[nH]2)cc1
- Activity [1]: 121%
- IC50 [2]: 70 nM
